Measured values: patent publication US20240408081A1, “NOVEL SYNERGISTIC COMBINATIONS AND METHODS OF USE THEREOF FOR TREATING CANCERS” (UNIVERSITE DE BORDEAUX, priority 2021, published 2024)
Where two headings read alike, the source gives them in different places.

Tests used:
[1] = test system: NEM157i, SU-DIPG-IVi and NEM163i DMG cells; experiment: Proliferation / cell viability assay (Sulforhodamine B) in DMG cell lines; format: cell-based, human
Description: (§1) Cell growth was measured with the In vitro Toxicology Assay kit (Sulforhodamine B, Sigma Aldrich, Saint Quentin Fallavier, France) according to manufacturer's instructions. Cells were plated at a density of 2000 cells per well in 96-well plates in triplicates. Absorbance was measured at 565 nm using the CLARIOstar multiplate reader (BMG Labtech, Champigny-sur-Marne, France) at indicated time points.

[2] = test system: BXdmg1 primary cells; experiment: Proliferation assay in primary DMG cells BXdmg1; format: cell-based, human
Description: as §1
A DMG biopsy was received in the laboratory and dissociated using GentleMACs cell separator (Miltenyi Biotech, Paris, France) within 24h using MACSBrain Tumor Dissociation Kit (Miltenyi Biotech, Paris, France) and the standard GentleMACs brain tissue separation program. Cells yielded were cultivated in Amniomax C100SUP plus Amniomax C100 basal medium (Gibco, ThermoFisher, Illkirch Cedex, France). Molecular and cellular analysis of the biopsy were detailed in FIG. 7 (see Rahal, F., C. Capdevielle, B. Rousseau, J. Izotte, J. W. Dupuy, D. Cappellen, G. Chotard, M. Menard, J. Charpentier, V. Jecko, C. Caumont, E. Gimbert, C. F. Grosset and M. Hagedorn (2022). “An EZH2 blocker sensitizes histone mutated diffuse midline glioma to cholesterol metabolism inhibitors through an off-target effect.” Neurooncol Adv 4 (1): vdac018).

[3] = test system: Huh6 and HepG2 hepatoblastoma cells; experiment: Growth and viability of hepatoblastoma cells (Huh6 and HepG2), 2D and 3D spheroid; format: cell-based, human
Description: For 2D culture, a total of 2,000 cells/well for Huh6 and 3,000 cells/well for HepG2 were seeded in 96-well microtiter plates. Cell growth was measured at 24 h, 48h, 72h or 96h after genetic manipulation and at 48h or 72h after drug treatment using the in vitro MTS assay Kit or Sulforhodamine B (SRB, Absorbance at 565 nm) assay (Sigma) following manufacturer's instructions. For 3D culture, spheroids were formed as described above and microplates were incubated in an IncuCyte® S3 live cell analysis system and scanned every 8 hours. For genetic manipulation, the lentiviral transductions or the gene depletions were done before the plating. For drug treatments, depending on the experiment and the drug, spheroids were treated at day 4 or 5 for 48h or 72h. Cell viability assay in spheroids was done using 1 μM calcein AM (BioLegend) and 2 μM ethidium homodimer 1 (Sigma) for 30 minutes at 37° C. Spheroids were imaged using an IncuCyte® S3 live cell analysis system. For all cell viability assays, drugs were used at half maximal inhibitory concentration (IC50).

[4] = test system: xenopus embryos; experiment: Toxicological assay in Xenopus embryos; format: in vivo; settings: treated from gastrula stage
Description: Embryos were left in solution until untreated control embryos reached stage 41.

[5] = test system: Huh6 and HepG2 cells; experiment: Clonogenicity assay; format: cell-based, human; settings: GSK-126 3 and 4 μM for Huh6 and HepG2; ATR 8 μM; SIM 4 μM; 10 days
Description: Huh6 and HepG2 cells were seeded at 500 and 1000 cells/well respectively in 12-well plates. After attachment, cells were treated with drugs.
Following incubation at 37° C. for 10 days, the cells were fixed with 4% PFA and stained with 0.05% crystal violet. Reading under the Fusion FX (Vilber Lourmat).

[6] = test system: Huh6 cells; experiment: Huh6 tumor xenografts in NSG mice; format: in vivo, NOD/LtSz-scid IL2R gamma null (NSG) mice; settings: intraperitoneal; GSK-126 50 mg/kg, ATR 20 mg/kg 3-times a week; cisplatin 1 mg/kg twice a week
Description: NOD/LtSz-scid IL2R gamma null (NSG) mice were bred in standard conditions compliant with regulatory bodies (French government). Sterilized food and water were accessible ad libitum. One million of Huh6 cells in 50% of Matrigel were subcutaneously injected in a total volume of 100 μl in the right flank of 8- to 9-week-old female mice (26-32 g; APAFIS #32917-2021121316283534 v2, Agreement #B33063916, Ministère de l'Enseignement Supérieur, de la Recherche et de l'Innovation).
Tumor growth was monitored by caliper measurement until tumors reached an average volume of 250 mm3 (at day 12, see arrow). […] The vehicle (PBS with 5% DMSO) was injected 3-times a week. Tumor growth was monitored during 16 additional days until tumors control reached a size of 2000 mm3. Thus, all mice were euthanized. Blood was collected from all euthanatized mice and circulating ASAT, ALAT, creatinine, and urea were measured to evaluate the toxicity of the different treatments on the liver and kidneys.

[7] = test system: patients with relapsed/refractory solid tumors and hematologic malignancies; settings: cited from earlier work

CC[C@H](C)n1cc(C)c2c(C(=O)NCc3c(C)cc(C)[nH]c3=O)cc(-c3ccc(N4CCNCC4)nc3)cc21 [GSK-126, 1-[(2S)-butan-2-yl]-N-[(4,6-dimethyl-2-oxo-1H-pyridin-3-yl)methyl]-3-methyl-6-[6-(1-piperazinyl)-3-pyridinyl]-4-indolecarboxamide]
effect of low dose on DMG cell growth ([1]; 4 μM): does not affect | IC50 ([1]; Homo sapiens, three DMG cell lines, 72 h of treatment, read-out: IC50 (half maximal inhibitory concentration)): 7.6 to 10.3 µM | doses with significant growth inhibition ([1]; NEM157i and SU-DIPG-IVi): above 6 μM | doses with total growth inhibition ([1]; NEM157i and SU-DIPG-IVi): above 25 μM | IC50 [2]: 10.4 µM | IC50 ([2]; Homo sapiens): ~10 µM | sensitivity of Huh6 and HepG2 cells in presence of Simvastatin or Atorvastatin ([3]; 72 h, 4 μM Simvastatin or 8 μM Atorvastatin): significantly increased (at least twice) | IC50 ([3]; Homo sapiens, hepatoblastoma cells, 48 h): 6 to 8 µM | toxic dose in xenopus embryos [4]: 1 mM | proliferation and survival of hepatoblastoma cells (clonogenic cell assay) [5]: little effect | development of hepatoblastoma in mice (tumor volume) [6]: no effect | clinical activity ([7]; at the MTD): inadequate clinical activity | half-life ([7]; human, in vivo): relatively short | maximum tolerated dose (MTD) ([7]; twice weekly intravenous, 28 days (3 weeks on/1 week off)): 2,400 mg
